Our source for the MIC values is patent publication US20040110802A1, “Antibacterial benzoic acid derivatives” (priority 2002, published 2004).

Converted amounts (≈) assume the structure as drawn.

For this test, the system named is SAUR 9218. Kind of test: MIC Test Method, standard agar dilution. In kind it is cell-based. As to conditions: agar dilution, Mueller Hinton agar, incubated overnight at 35° C.; lowest concentration that inhibits visible growth; read-out: SAUR 9218 MIC. The method, then: The in vitro MiCs of test compounds were determined by a standard agar dilution method. A stock drug solution of each analog was prepared in the preferred solvent, usually DMSO:H2O (1:3). Serial 2-fold dilutions of each sample are made using 1.0 ml aliquots of sterile distil]ed water. To each 1.0 ml aliquot of drug was added 9 ml of molten Mueller Hinton agar medium. The drug-supplemented agar was mixed, poured into 15×100 mm petri dishes, and allowed to solidify and dry prior to inoculation.
Vials of each of the test organisms are maintained frozen in the vapor phase of a liquid nitrogen freezer. Test cultures are grown overnight at 35° C. on the medium appropriate for the organism. Colonies are harvested with a sterile swab, and cell suspensions are prepared in Trypticase Soy broth (TSB) to equal the turbidity of a 0.5 McFamland standard. A 1:20 dilution of each suspension was made in TSB. The plates containing the drug supplemented agar are inoculated with a 0.001 ml drop of the cell suspension using a Steers replicator, yielding approximately 10^4 to 10^5 cells per spot. The plates are incubated overnight at 35° C.
Following incubation the Minimum Inhibitory Concentration (MIC μg/ml), the lowest concentration of drug that inhibits visible growth of the organism, was read and recorded.
In general terms: Agar dilution tests growth on a series of plates holding different concentrations.

The term MIC denotes the lowest concentration found to suppress growth. `Cn1c(C(=O)Nc2ccc(C#N)cc2C(=O)O)cc2ccc(NS(C)(=O)=O)cc21`: the minimum inhibitory concentration (MIC) worked out at 4 µg/mL (≈ 9.7 µM).

Turning to `N#Cc1ccc(NC(=O)c2cc3cccc(NC(=O)C4CCOC4)c3[nH]2)c(C(=O)O)c1` (stereo not drawn), the MIC worked out at 2 µg/mL (≈ 4.78 µM). Take `CC(C)Cn1c(C(=O)Nc2ccc(Br)cc2C(=O)O)cc2ccccc21`: the MIC worked out at 2 µg/mL (≈ 4.82 µM).

`N#Cc1ccc(NC(=O)c2noc3ccc(N)cc23)c(C(=O)O)c1`: the MIC stood at 0.5 µg/mL (≈ 1.55 µM).

`CC(=O)Nc1ccccc1-c1ccc2c(C(=O)Nc3ccc(C#N)cc3C(=O)O)noc2c1`: the MIC turned out to be 0.5 µg/mL (≈ 1.14 µM). The same measure for `N#Cc1ccc(NC(=O)c2cc3cccc(NC(=O)Cc4cccc(Cl)c4)c3[nH]2)c(C(=O)O)c1`: 0.25 µg/mL (≈ 0.529 µM); for `N#Cc1ccc(NC(=O)c2noc3ccc(NCC4CC4)cc23)c(C(=O)O)c1`: 0.5 µg/mL (≈ 1.33 µM); for `COc1ccc(CCCC(=O)Nc2cccc3cc(C(=O)Nc4ccc(C#N)cc4C(=O)O)[nH]c23)cc1`: 1 µg/mL (≈ 2.01 µM). Then `Cc1c(S(=O)(=O)Nc2ccc3c(c2)OCCO3)csc1C(=O)Nc1ccc(Br)cc1C(=O)O`, with 16 µg/mL (≈ 28.9 µM); and `N#Cc1ccc(NC(=O)c2cc3cccc(NC(=O)c4ccccc4-c4ccccc4)c3[nH]2)c(C(=O)O)c1`, with 1 µg/mL (≈ 2 µM). Then `Cc1sc(C(=O)Nc2ccc(Br)cc2C(=O)O)cc1S(=O)(=O)NCc1ccc(N(C)C)cc1`, with 16 µg/mL (≈ 29 µM); and `CC(=O)Nc1cccc(-c2ccc3onc(C(=O)Nc4ccc(C#N)cc4C(=O)O)c3c2)c1`, with 0.5 µg/mL (≈ 1.14 µM); and `CCCS(=O)(=O)Nc1cccc2cc(C(=O)Nc3ccc(C#N)cc3C(=O)O)n(C)c12`, with 0.5 µg/mL (≈ 1.14 µM).

Take `CCCCCCCSc1ccc(C(=O)Nc2ccc(Br)cc2C(=O)O)nn1`: the MIC worked out at 0.06 µg/mL (≈ 0.133 µM).

For `CC(C)(C)CC(=O)Nc1cccc2cc(C(=O)Nc3ccc(C#N)cc3C(=O)O)[nH]c12`, the MIC is 2 µg/mL (≈ 4.78 µM). The same measure for `COc1ccc(-c2cc(C(=O)Nc3ccc(C#N)cc3C(=O)O)no2)cc1`: 0.5 µg/mL (≈ 1.38 µM).

As for `Cc1sc(C(=O)Nc2ccc(C#N)cc2C(=O)O)cc1S(=O)(=O)N1CCc2ccccc2C1`, the MIC was 4 µg/mL (≈ 8.31 µM). The same measure for `CC(=O)Nc1cccc2cc(C(=O)Nc3ccc(C#N)cc3C(=O)O)[nH]c12`: 2 µg/mL (≈ 5.52 µM). `Cn1c(C(=O)Nc2ccc(C#N)cc2C(=O)O)cc2cccc(N(S(C)(=O)=O)S(C)(=O)=O)c21`: the minimum inhibitory concentration (MIC) worked out at 0.125 µg/mL (≈ 0.255 µM). Take `CCCCCCCC(=O)Nc1cccc2cc(C(=O)Nc3ccc(C#N)cc3C(=O)O)[nH]c12`: the MIC amounted to 0.125 µg/mL (≈ 0.28 µM). Consider `N#Cc1ccc(NC(=O)c2cc3cccc(NC(=O)Cc4c(Cl)cccc4Cl)c3[nH]2)c(C(=O)O)c1`, for which the MIC is 0.25 µg/mL (≈ 0.493 µM). The same measure for `Cc1noc(C)c1-c1ccc2cc(C(=O)Nc3ccc(C#N)cc3C(=O)O)n(C)c2c1`: 1 µg/mL (≈ 2.41 µM); for `CCCCC(CC)C(=O)Nc1cccc2cc(C(=O)Nc3ccc(C#N)cc3C(=O)O)[nH]c12` (stereo not drawn): 0.5 µg/mL (≈ 1.12 µM).

As for `Cc1c(S(=O)(=O)N(C)c2ccc(Cl)cc2)csc1C(=O)Nc1ccc(Br)cc1C(=O)O`, the MIC was determined as 8 µg/mL (≈ 14.7 µM). Then `Cc1sc(C(=O)Nc2ccc(C#N)cc2C(=O)O)cc1S(=O)(=O)N(CCC#N)Cc1ccccc1`, with 64 µg/mL (≈ 126 µM). The same measure for `CC(C)Cn1c(C(=O)Nc2ccc(C#N)cc2C(=O)O)cc2ccccc21`: 4 µg/mL (≈ 11.1 µM). Then `CCCCCCC(=O)Nc1cccc2cc(C(=O)Nc3ccc(C#N)cc3C(=O)O)[nH]c12`, with 0.5 µg/mL (≈ 1.16 µM); and `O=C(Nc1ccc(Br)cc1C(=O)O)c1csc(S(=O)(=O)N2CCN(c3ccc(Cl)cc3)CC2)c1`, with 32 µg/mL (≈ 54.7 µM). As to `COc1ccc(OC)c(-c2ccc3onc(C(=O)Nc4ccc(C#N)cc4C(=O)O)c3c2)c1`, the MIC came out at 0.25 µg/mL (≈ 0.564 µM). The same measure for `O=C(O)c1cc(Br)ccc1NC(=O)c1nsc2ccccc12`: 1 µg/mL (≈ 2.65 µM). For `N#Cc1ccc(NC(=O)c2cccc3c2CCN(Cc2ccccc2)S3(=O)=O)c(C(=O)O)c1`, the MIC turned out to be 8 µg/mL (≈ 17.3 µM).

For `CN(c1ccc(Cl)cc1)S(=O)(=O)c1csc(C(=O)Nc2ccc(Br)cc2C(=O)O)c1`, the minimal inhibitory concentration (MIC) turned out to be 8 µg/mL (≈ 15.1 µM). Then `O=C(Nc1ccc(Br)cc1C(=O)O)c1cc(Cl)nc(Cl)c1`, with 32 µg/mL (≈ 82 µM). The same measure for `N#Cc1ccc(NC(=O)c2noc3ccc([N+](=O)[O-])cc23)c(C(=O)O)c1`: 0.25 µg/mL (≈ 0.71 µM). On to `N#Cc1ccc(NC(=O)c2cc3cccc(NC(=O)Cc4ccc(C(F)(F)F)cc4)c3[nH]2)c(C(=O)O)c1`, for which the MIC is 0.5 µg/mL (≈ 0.987 µM). Regarding `CCCCSc1ccc(C(=O)Nc2ccc(C#N)cc2C(=O)O)cn1`, the MIC came to 0.25 µg/mL (≈ 0.703 µM).

Regarding `N#Cc1ccc(NC(=O)c2ccc(SCC(=O)c3ccc4c(c3)C(=O)NCO4)nn2)c(C(=O)O)c1`, the MIC amounted to 0.5 µg/mL (≈ 1.02 µM). Then `O=C(O)c1cc(Br)ccc1NC(=O)c1noc2ccccc12`, with 0.25 µg/mL (≈ 0.692 µM); and `N#Cc1ccc(NC(=O)c2noc3cc(-c4ccccc4)ccc23)c(C(=O)O)c1`, with 0.125 µg/mL (≈ 0.326 µM).

`Cn1nc(C(=O)Nc2ccc(Br)cc2C(=O)O)cc1-c1ccccc1`: the MIC came to 32 µg/mL (≈ 80 µM).

Take `N#Cc1ccc(NC(=O)c2noc3ccc(S(=O)(=O)N(CCO)CCO)cc23)c(C(=O)O)c1`: the MIC came to 0.5 µg/mL (≈ 1.05 µM). Turning to `Cn1c(C(=O)Nc2ccc(C#N)cc2C(=O)O)cc2cccc(NS(C)(=O)=O)c21`, the MIC worked out at 0.5 µg/mL (≈ 1.21 µM). The same measure for `Cl.Cn1c(C(=O)Nc2ccc(C#N)cc2C(=O)O)cc2cccc(OCC(O)CNCC(O)c3ccccc3)c21` (stereo not drawn): 1 µg/mL; for `Cc1ccccc1-c1ccc2cc(C(=O)Nc3ccc(C#N)cc3C(=O)O)n(C)c2c1`: 0.5 µg/mL (≈ 1.22 µM).

As for `Cc1ccccc1CC(=O)Nc1cccc2cc(C(=O)Nc3ccc(C#N)cc3C(=O)O)[nH]c12`, the MIC was found to be 0.25 µg/mL (≈ 0.553 µM). The same measure for `Cc1nn(-c2ccccc2)nc1C(=O)Nc1ccc(C#N)cc1C(=O)O`: 4 µg/mL (≈ 11.5 µM); for `CCCCCCSc1ccc(C(=O)Nc2ccc(Br)cc2C(=O)O)nn1`: 0.125 µg/mL (≈ 0.285 µM); for `N#Cc1ccc(NC(=O)c2cc(CNCc3ccncc3)on2)c(C(=O)O)c1.O=C(O)C(F)(F)F`: 8 µg/mL.

For `O=C(Nc1ccc(Br)cc1C(=O)O)c1cc(SCc2ccccc2)ccn1`, the MIC came to 2 µg/mL (≈ 4.51 µM). Then `COc1ccc(C(=O)Nc2ccc(Br)cc2C(=O)O)c(OC)n1`, with above 128 µg/mL; and `Cn1c(C(=O)Nc2ccc(C#N)cc2C(=O)O)cc2cccc(OCC(O)COCC(O)CO)c21` (stereo not drawn), with 2 µg/mL (≈ 4.14 µM); and `N#Cc1ccc(NC(=O)c2cnc(CCc3ccccc3)cn2)c(C(=O)O)c1`, with 16 µg/mL (≈ 43 µM).

Take `CC(=O)c1ccc(N2CCN(S(=O)(=O)c3cc(C(=O)Nc4ccc(C#N)cc4C(=O)O)sc3C)CC2)cc1`: the minimum inhibitory concentration (MIC) worked out at 16 µg/mL (≈ 29 µM).

As to `N#Cc1ccc(NC(=O)C2=NS(=O)(=O)c3ccccc32)c(C(=O)O)c1`, the MIC was above 128 µg/mL. Turning to `Cn1c(C(=O)Nc2ccc(C#N)cc2C(=O)O)cc2cccc(Br)c21`, the MIC was 0.5 µg/mL (≈ 1.26 µM). Then `N#Cc1cccc(-c2cnc(C(=O)Nc3ccc(C#N)cc3C(=O)O)o2)c1`, with 2 µg/mL (≈ 5.58 µM); and `C=CCn1c(C(=O)Nc2ccc(Br)cc2C(=O)O)cc2ccccc21`, with 8 µg/mL (≈ 20 µM). The same measure for `COc1ccc2[nH]c(C(=O)Nc3ccc(C#N)cc3C(=O)O)cc2c1`: 128 µg/mL (≈ 382 µM); for `O=C(Nc1ccc(Br)cc1C(=O)O)c1ccnc(SCc2ccccc2)c1`: 2 µg/mL (≈ 4.51 µM); for `O=C(Nc1ccc(Br)cc1C(=O)O)c1cc(SCc2ccccc2)on1`: 0.125 µg/mL (≈ 0.288 µM).

In the case of `N#Cc1ccc(NC(=O)c2cc(CO)on2)c(C(=O)O)c1`, the MIC worked out at 8 µg/mL (≈ 27.9 µM). As for `O=C(O)c1cc(Br)ccc1NC(=O)c1ccnc2ccccc12`, the MIC was above 128 µg/mL.

`N#Cc1ccc(NC(=O)c2ccc(-c3ccccc3C(F)(F)F)nn2)c(C(=O)O)c1`: the MIC amounted to 16 µg/mL (≈ 38.8 µM).
